Data from US12304920B2, “Platinum complex, its preparation and therapeutic use” (CITY UNIVERSITY OF HONG KONG, priority 2020, dated 2025).

Legend:
[1] = system: Human ovarian A2780 cells; assay: MTT cytotoxicity test, A2780; assay type: cell-based; conditions: 72 h, medium with 1% DMF (no DMF for 3a and 3b)
Description: (§1) Human ovarian A2780 and cisplatin-resistant A2780cisR cells were maintained in Roswell Park […] (RPMI) 1640 medium supported with 10% FBS, 2 mM L-glutamine, and 100 unit/mL penicillin/streptomycin. Human lung carcinoma A549 cells, cisplatin-resistant A549cisR cells, and human breast MCF-7 cells were cultured in Dulbecco's Modified Eagle Medium (DMEM) with 10% FBS and 100 units penicillin/streptomycin.
(§2) The viability of cancer cells exposed to the compounds was evaluated by means of MTT assay. Cells were seeded in 96-well plates at a density of 3,000 cells per well and incubated until the cell confluency reached 50%. Then, the medium was removed and replaced with fresh medium containing different concentrations of complexes with 1% DMF. For complex 3a and 3b with A2780, A2780CisR, A549 and A549CisR cells, the medium used for replacement contains no DMF. After 72 h, the medium was changed to serum-free medium containing 1 mg/mL MTT. After 2 h additional incubation, the medium was removed, and DMSO (200 μL) was delivered to each well to dissolve the formed purple formazan. The absorbance at 570 nm and 730 nm of each well was measured using a microplate reader (BioTek PowerWave XS).

[2] = system: cisplatin-resistant A2780cisR cells; assay: MTT cytotoxicity test, A2780cisR; assay type: cell-based, Human; conditions: 72 h, medium with 1% DMF (no DMF for 3a and 3b)
Description: as §1, §2

[3] = system: Human lung carcinoma A549 cells; assay: MTT cytotoxicity test, A549; assay type: cell-based; conditions: 72 h, medium with 1% DMF (no DMF for 3a and 3b)
Description: as §1, §2

[4] = system: cisplatin-resistant A549cisR cells; assay: MTT cytotoxicity test, A549cisR; assay type: cell-based, Human; conditions: 72 h, medium with 1% DMF (no DMF for 3a and 3b)
Description: as §1, §2

[5] = system: human breast MCF-7 cells; assay: MTT cytotoxicity test, MCF-7; assay type: cell-based; conditions: 72 h, medium with 1% DMF
Description: as §1, §2

Compound | IC50 [1] | IC50 [2] | IC50 [3] | IC50 [4] | IC50 [5]
N.N.[Cl][Pt][Cl] [cisplatin, reference compound] | 2.1 ± 0.6 µM | 23 ± 6 µM | 2 ± 0.1 µM | 12 ± 1 µM | 18 ± 3 µM
[Pt(C26H24P2)2]Cl2 [Complex 3a] | 12 ± 3 µM | 5 ± 1 µM | 3.6 ± 0.2 µM | 1.3 ± 0.1 µM | 7 ± 1 µM
[Pt(C54H52P2)]Cl2 [Complex 3b] | 0.23 ± 0.09 µM | 2.6 ± 0.6 µM | 0.48 ± 0.02 µM | 0.07 ± 0.01 µM | 0.2 ± 0.01 µM
t-[Pt(acetato)2(C9H17P)2] [Complex 2a] | 8 ± 1 µM | 7 ± 2 µM | 28 ± 3 µM | – | 7 ± 1 µM
t-[Pt(acetato)2(C17H14NP)2] [Complex 2e] | > 9.4 µM | > 9.4 µM | > 11.1 µM | – | > 9.4 µM
t-[Pt(acetato)2(C18H12Cl3P)2] [Complex 2c] | 4 ± 1 µM | 4 ± 1 µM | 24 ± 7 µM | – | 18 ± 2 µM
t-[Pt(acetato)2(C18H21P)2] [Complex 2d] | > 2.4 µM | > 2.4 µM | > 2.7 µM | – | > 2.4 µM
t-[Pt(acetato)2(C21H21P)2] [Complex 2b] | 4 ± 1 µM | 4 ± 1 µM | 6.1 ± 0.3 µM | – | 4 ± 0.3 µM
t-[Pt(acetato)2(PPh3)2] [Complex 1a] | 4.3 ± 0.6 µM | 3.3 ± 0.8 µM | 3.3 ± 0.6 µM | 5 ± 1 µM | 10 ± 1 µM
t-[Pt(acetato)(benzoato)(PPh3)2] [Complex 1d] | 4.9 ± 0.6 µM | 3.1 ± 0.2 µM | 5 ± 3 µM | 5 ± 1 µM | –
t-[Pt(phthalato)2(PPh3)2] [Complex 1c] | 18 ± 3 µM | 10 ± 2 µM | 7 ± 1 µM | 7 ± 2 µM | –
t-[Pt(succinato)2(PPh3)2] [Complex 1b] | 15 ± 1 µM | 13 ± 1 µM | 5.3 ± 0.6 µM | 8 ± 5 µM | –
t-[Pt(succinato)(benzoato)(PPh3)2] [Complex 1e] | 8 ± 4 µM | 7.2 ± 0.2 µM | 5 ± 0.8 µM | 5 ± 2 µM | –
